Results taken from US6133294A (priority 1999, dated 2000).

How the values were obtained:
Format in all cases: in vivo
Erysiphe graminis = assay: Powdery Mildew of Wheat (Erysiphe graminis--ERYSGT); conditions: wheat (cultivar Monon), 100 ppm spray to run off, inoculated after 24 hours; for pest or weed control at 100 ppm: Blumeria graminis, 1DP, read-out: control of plant disease, ERYSGT 1DP
Procedure: (§1) Compound Formulation: Compound formulation was accomplished by dissolving technical materials in acetone, with serial dilutions then made in acetone to obtain desired rates. Final treatment volumes were obtained by adding nine volumes 0.05% aqueous Tween-20 or Triton X-100, depending upon the pathogen.
Powdery Mildew of Wheat (Erysiphe graminis--ERYSGT): Wheat (cultivar Monon) was grown in a soilless peat-based potting mixture (Metromix) until the seedlings were 1-2 leaf (BBCH 12). These plants were then sprayed to run off with the test compound at a rate of 100 ppm. After 24 hours the test plants were inoculated with Erysiphe graminis by dusting spores from stock plants onto the test plants. The plants were then transferred to the greenhouse until disease developed on the untreated control plants.
(§2) the following table presents the activity of typical compounds of the present invention when evaluated in these experiments. The effectiveness of the test compounds in controlling disease was rated using the following scale: […]

Leptosphaeria nodorum = assay: Glume blotch of wheat (Leptosphaeria nodorum--LEPTNO); conditions: wheat (cultivar Monon), 100 ppm spray to run off, inoculated after 24 hours; for pest or weed control at 100 ppm: Parastagonospora nodorum, 1DP, read-out: control of plant disease, LEPTNO 1DP
Procedure: as §1
(§3) Glume blotch of wheat (Leptosphaeria nodorum--LEPTNO): Wheat (cultivar Monon) was grown from seed in a soilless peat-based potting mixture (Metromix) until the seedlings were 1-2 leaf (BBCH 12). These plants were then sprayed to run off with the test compound at a rate of 100 ppm. After 24 hours the test plants were inoculated with an aqueous spore suspension of Leptosphaeria nodorum. The plants were then transferred to the greenhouse until disease developed on the untreated control plants.
as §2

Phytophthora infestans = assay: whole plant or invertebrate; conditions: for pest or weed control at 100 ppm: Phytophthora infestans, 24 h, read-out: control of plant disease, PHYTIN 1DP; for control of plant disease, PHYTIN 1DP: tomatoes (cultivar Rutgers), 100 ppm spray to run off, inoculated after 24 hours
Puccinia recondita = assay: Brown rust (Puccinia recondita--PUCCRT); conditions: wheat (cultivar Monon), 100 ppm spray to run off, inoculated after 24 hours; for pest or weed control at 100 ppm: Puccinia recondita, 1DP, read-out: control of plant disease, PUCCRT 1DP
Procedure: as §1
as §3, with “Brown rust (Puccinia recondita--PUCCRT):” for “Glume blotch of wheat (Leptosphaeria nodorum--LEPTNO):”, “[…]).” for “1-2 leaf (BBCH 12).”, “Puccinia recondita.” for “Leptosphaeria nodorum.”
as §2

SMILES: CNC(=O)C(=NOC)c1ccccc1COc1ncc(-c2nnc(C3CC3)o2)cc1Cl [Example 1, Benzeneacetamide, 2-[[[3-chloro-5-(5-cyclopropyl-1,3,4-oxadiazol-2-yl)-2-pyridinyl]oxy]methyl]-α-(methoxyimino)-N-methyl-]
- pest or weed control at 100 ppm (Erysiphe graminis): 0 to 24%
- pest or weed control at 100 ppm (Leptosphaeria nodorum): 0 to 24%
- pest or weed control at 100 ppm (Phytophthora infestans): 75 to 100%
- pest or weed control at 100 ppm (Puccinia recondita): 75 to 100%

SMILES: CCOc1cc(-c2cnc(OCc3ccccc3C(=NOC)C(=O)NC)c(Cl)c2)no1 [Example 40]
- pest or weed control at 100 ppm (Erysiphe graminis): 75 to 100%
- pest or weed control at 100 ppm (Leptosphaeria nodorum): 0 to 24%
- pest or weed control at 100 ppm (Phytophthora infestans): 25 to 74%
- pest or weed control at 100 ppm (Puccinia recondita): 75 to 100%

SMILES: CNC(=O)C(=NOC)c1ccccc1COc1ncc(-c2noc(-c3ccccc3)n2)cc1Cl [Example 7]
- pest or weed control at 100 ppm (Erysiphe graminis): 75 to 100%
- pest or weed control at 100 ppm (Leptosphaeria nodorum): 75 to 100%
- pest or weed control at 100 ppm (Phytophthora infestans): 75 to 100%
- pest or weed control at 100 ppm (Puccinia recondita): 75 to 100%

SMILES: CNC(=O)C(=NOC)c1ccccc1COc1ncc(-c2noc(C3CC3)n2)cc1Cl [Example 21]
- pest or weed control at 100 ppm (Erysiphe graminis): 75 to 100%
- pest or weed control at 100 ppm (Leptosphaeria nodorum): 75 to 100%
- pest or weed control at 100 ppm (Phytophthora infestans): 75 to 100%
- pest or weed control at 100 ppm (Puccinia recondita): 75 to 100%

SMILES: CNC(=O)C(=NOC)c1ccccc1COc1ccc(-c2nc(C(C)C)no2)cn1 [Example 70]
- pest or weed control at 100 ppm (Erysiphe graminis): 75 to 100%
- pest or weed control at 100 ppm (Leptosphaeria nodorum): 75 to 100%
- pest or weed control at 100 ppm (Phytophthora infestans): 0 to 24%
- pest or weed control at 100 ppm (Puccinia recondita): 75 to 100%

SMILES: CNC(=O)C(=NOC)c1ccccc1COc1ncc(-c2nc(CC(C)C)no2)cc1Cl [Example 77]
- pest or weed control at 100 ppm (Erysiphe graminis): 75 to 100%
- pest or weed control at 100 ppm (Leptosphaeria nodorum): 75 to 100%
- pest or weed control at 100 ppm (Phytophthora infestans): 0 to 24%
- pest or weed control at 100 ppm (Puccinia recondita): 75 to 100%

SMILES: CNC(=O)C(=NOC)c1ccccc1COc1ccc(-c2nc(C3CCCCC3)no2)cn1 [Example 73]
- pest or weed control at 100 ppm (Erysiphe graminis): 75 to 100%
- pest or weed control at 100 ppm (Leptosphaeria nodorum): 0 to 24%
- pest or weed control at 100 ppm (Phytophthora infestans): 25 to 74%
- pest or weed control at 100 ppm (Puccinia recondita): 75 to 100%

SMILES: CNC(=O)C(=NOC)c1ccccc1COc1ncc(-c2nc(N3CCCCC3)no2)cc1Cl [Example 69]
- control of plant disease, ERYSGT 1DP (Erysiphe graminis): ++ (75-100% control of plant disease)
- control of plant disease, LEPTNO 1DP (Leptosphaeria nodorum): ++ (75-100% control of plant disease)
- control of plant disease, PHYTIN 1DP (Phytophthora infestans): ++ (75-100% control of plant disease)
- control of plant disease, PUCCRT 1DP (Puccinia recondita): ++ (75-100% control of plant disease)

SMILES: CNC(=O)C(=NOC)c1cccc(Cl)c1COc1ncc(-c2noc(C(F)(F)F)n2)cc1Cl [Example 34]
- control of plant disease, ERYSGT 1DP (Erysiphe graminis): ++ (75-100% control of plant disease)
- control of plant disease, LEPTNO 1DP (Leptosphaeria nodorum): ++ (75-100% control of plant disease)
- control of plant disease, PHYTIN 1DP (Phytophthora infestans): - (0-24% control of plant disease)
- control of plant disease, PUCCRT 1DP (Puccinia recondita): ++ (75-100% control of plant disease)

SMILES: CNC(=O)C(=NOC)c1ccccc1COc1ncc(-c2noc(-c3ccco3)n2)cc1Cl [Example 18]
- pest or weed control at 100 ppm (Erysiphe graminis): 25 to 74%
- pest or weed control at 100 ppm (Leptosphaeria nodorum): 75 to 100%
- pest or weed control at 100 ppm (Phytophthora infestans): 75 to 100%
- pest or weed control at 100 ppm (Puccinia recondita): 75 to 100%

SMILES: CNC(=O)C(=NOC)c1ccccc1COc1cccc(-c2nc(C(C)C)no2)n1 [Example 87]
- pest or weed control at 100 ppm (Erysiphe graminis): 75 to 100%
- pest or weed control at 100 ppm (Leptosphaeria nodorum): 75 to 100%
- pest or weed control at 100 ppm (Phytophthora infestans): 75 to 100%
- pest or weed control at 100 ppm (Puccinia recondita): 75 to 100%

SMILES: CCc1noc(-c2cccc(OCc3ccccc3C(=NOC)C(=O)NC)n2)n1 [Example 85]
- control of plant disease, ERYSGT 1DP (Erysiphe graminis): + (25-74% control of plant disease)
- control of plant disease, LEPTNO 1DP (Leptosphaeria nodorum): - (0-24% control of plant disease)
- control of plant disease, PHYTIN 1DP (Phytophthora infestans): - (0-24% control of plant disease)
- control of plant disease, PUCCRT 1DP (Puccinia recondita): ++ (75-100% control of plant disease)

SMILES: CCCc1noc(-c2cnc(OCc3ccccc3C(=NOC)C(=O)NC)c(Cl)c2)n1 [Example 78]
- pest or weed control at 100 ppm (Erysiphe graminis): 75 to 100%
- pest or weed control at 100 ppm (Leptosphaeria nodorum): 75 to 100%
- pest or weed control at 100 ppm (Phytophthora infestans): 0 to 24%
- pest or weed control at 100 ppm (Puccinia recondita): 75 to 100%

SMILES: CNC(=O)C(=NOC)c1ccccc1COc1ncc(-c2noc(C(C)C)n2)cc1Cl [Example 37]
- pest or weed control at 100 ppm (Erysiphe graminis): 75 to 100%
- pest or weed control at 100 ppm (Leptosphaeria nodorum): 75 to 100%
- pest or weed control at 100 ppm (Phytophthora infestans): 0 to 24%
- pest or weed control at 100 ppm (Puccinia recondita): 75 to 100%

SMILES: CCc1nnc(-c2cnc(OCc3ccccc3C(=NOC)C(=O)NC)c(Cl)c2)o1 [Example 5]
- pest or weed control at 100 ppm (Erysiphe graminis): 75 to 100%
- pest or weed control at 100 ppm (Leptosphaeria nodorum): 75 to 100%
- pest or weed control at 100 ppm (Phytophthora infestans): 75 to 100%
- pest or weed control at 100 ppm (Puccinia recondita): 75 to 100%

SMILES: CNC(=O)C(=NOC)c1ccccc1COc1ncc(-c2nc(C(F)(F)F)no2)cc1Cl [Example 68]
- pest or weed control at 100 ppm (Erysiphe graminis): 75 to 100%
- pest or weed control at 100 ppm (Leptosphaeria nodorum): 75 to 100%
- pest or weed control at 100 ppm (Phytophthora infestans): 0 to 24%
- pest or weed control at 100 ppm (Puccinia recondita): 75 to 100%

SMILES: CNC(=O)C(=NOC)c1ccccc1COc1ncc(-c2cc(C(C)C)on2)cc1Cl [Example 38]
- pest or weed control at 100 ppm (Erysiphe graminis): 75 to 100%
- pest or weed control at 100 ppm (Leptosphaeria nodorum): 75 to 100%
- pest or weed control at 100 ppm (Phytophthora infestans): 0 to 24%
- pest or weed control at 100 ppm (Puccinia recondita): 75 to 100%

SMILES: CNC(=O)C(=NOC)c1ccccc1COc1ccc(-c2nc(C(C)(C)C)no2)cn1 [Example 65]
- pest or weed control at 100 ppm (Erysiphe graminis): 75 to 100%
- pest or weed control at 100 ppm (Leptosphaeria nodorum): 75 to 100%
- pest or weed control at 100 ppm (Phytophthora infestans): 0 to 24%
- pest or weed control at 100 ppm (Puccinia recondita): 75 to 100%

SMILES: CNC(=O)C(=NOC)c1ccccc1COc1ncc(-c2nnc(-c3ccccc3)o2)cc1Cl [Example 2]
- pest or weed control at 100 ppm (Erysiphe graminis): 25 to 74%
- pest or weed control at 100 ppm (Leptosphaeria nodorum): 75 to 100%
- pest or weed control at 100 ppm (Phytophthora infestans): 75 to 100%
- pest or weed control at 100 ppm (Puccinia recondita): 75 to 100%

SMILES: CNC(=O)C(=NOC)c1cccc(Cl)c1COc1cccc(-c2nc(C(C)(C)C)no2)n1 [Example 86]
- control of plant disease, ERYSGT 1DP (Erysiphe graminis): ++ (75-100% control of plant disease)
- control of plant disease, LEPTNO 1DP (Leptosphaeria nodorum): - (0-24% control of plant disease)
- control of plant disease, PHYTIN 1DP (Phytophthora infestans): + (25-74% control of plant disease)
- control of plant disease, PUCCRT 1DP (Puccinia recondita): ++ (75-100% control of plant disease)

SMILES: CNC(=O)C(=NOC)c1cccc(C)c1COc1ncc(-c2noc(C(F)(F)F)n2)cc1Cl [Example 35]
- control of plant disease, ERYSGT 1DP (Erysiphe graminis): ++ (75-100% control of plant disease)
- control of plant disease, LEPTNO 1DP (Leptosphaeria nodorum): ++ (75-100% control of plant disease)
- control of plant disease, PHYTIN 1DP (Phytophthora infestans): - (0-24% control of plant disease)
- control of plant disease, PUCCRT 1DP (Puccinia recondita): ++ (75-100% control of plant disease)
